Measured values as given in patent US20160039676A1, “Fullerene Derivatives and Their Applications in Organic Photovoltaics” (Nano and Advanced Materials Institute Limited, priority 2014, published 2016).

Tests used:
[1] = Relative solubility in non-halogenated solvents, evaluated by visual observation; type: physicochemical; details: concentration 30 mg/mL
Method: Each of the compounds is added into the test tubes containing five organic solvents at a concentration of 30 mg/mL.

[2] = Electrochemical properties (onset oxidation/reduction potentials, HOMO, LUMO, gap); type: physicochemical; design: Eox / Ered: unit not given here; details: for HOMO: HOMO = −e(Eox + 4.32); for Eg: HOMO-LUMO gap; for LUMO: LUMO = −e(Ered + 4.32); for Eox: onset oxidation potential; for Ered: onset reduction potential
From the text: The energy difference between HOMO and LUMO is also illustrated in FIG. 4. […] The compounds of formulae 1b-d have similar energy difference between HOMO and LUMO, meaning their potential energy levels are similar. Among the compounds of formulae 1a-d, it appears that the compound of formula 1a has the best potential energy suitable for being applied in organic photovoltaics; the compound of formula 1c is the second best.

Relative solubility in diethyl ether [1]	HOMO [2] [eV]	Eg [2] [eV]	LUMO [2] [eV]	Eox [2]	Ered [2]	Relative solubility in ethanol [1]	Relative solubility in ethyl acetate [1]	Relative solubility in tetrahydrofuran (THF) ([1]; THF)	SMILES	Relative solubility in toluene [1]
Insoluble	−6.12	2.29	−3.83	1.80	−0.49	Insoluble	Insoluble		CCCC[Si](C)(C)OC12c3c4c5c6c7c8c(c9c%10c1c1c%11c3c3c%12c4c4c6c6c7c7c%13c8c9c8c9c%10c1c1c%10c%11c3c3c%11c%12c4c4c6c6c7c7c%13c8c8c9c1c1c%10c3c3c%11c4c6c4c7c8c1c34)C52OC(=O)c1c(C)cccc1C (stereo not drawn) [Formula 1c]	Soluble
Insoluble	−6.06	2.22	−3.84	1.74	−0.48	Insoluble	Insoluble	Insoluble	Cc1cccc(C)c1C(=O)OC12c3c4c5c6c7c8c(c9c%10c1c1c%11c3c3c%12c4c4c6c6c7c7c%13c8c9c8c9c%10c1c1c%10c%11c3c3c%11c%12c4c4c6c6c7c7c%13c8c8c9c1c1c%10c3c3c%11c4c6c4c7c8c1c34)C52O[Si](C)(C)C(C)(C)C (stereo not drawn) [Formula 1d]	
Insoluble	−6.03	2.25	−3.78	1.71	−0.54	Insoluble	Insoluble		Cc1cccc(C)c1C(=O)OC12c3c4c5c6c7c8c(c9c%10c1c1c%11c3c3c%12c4c4c6c6c7c7c%13c8c9c8c9c%10c1c1c%10c%11c3c3c%11c%12c4c4c6c6c7c7c%13c8c8c9c1c1c%10c3c3c%11c4c6c4c7c8c1c34)C52OC[Si](C)(C)c1ccccc1 (stereo not drawn) [Formula 1b]	

SMILES	Relative solubility in diethyl ether [1]	HOMO [2] [eV]	Eg [2] [eV]	LUMO [2] [eV]	Eox [2]	Ered [2]	Relative solubility in ethanol [1]	Relative solubility in ethyl acetate [1]	Relative solubility in tetrahydrofuran (THF) ([1]; THF)	Relative solubility in toluene [1]
Cc1cccc(C)c1C(=O)OC12c3c4c5c6c7c8c(c9c%10c1c1c%11c3c3c%12c4c4c6c6c7c7c%13c8c9c8c9c%10c1c1c%10c%11c3c3c%11c%12c4c4c6c6c7c7c%13c8c8c9c1c1c%10c3c3c%11c4c6c4c7c8c1c34)C52O[Si](C)(C)c1ccccc1 (stereo not drawn) [Formula 1a]	Insoluble	−6.08	2.41	−3.67	1.76	−0.65				Soluble
